The text below walks through data of publication PMC6152329, “Antitumoural Sulphur and Selenium Heteroaryl Compounds: Thermal Characterization and Stability Evaluation” (Molecules : A Journal of Synthetic Chemistry and Natural …, 2017).

In data set [1] the test system is non-malignant mammary-gland-derived (184B5) cell line. Kind of data set: MTT cell viability assay, 72 h, 184B5. The class given is cell-based. The following applies: 184B5, 72 h. How it is done:
(§1) The novel synthetic compounds VA2J, VA4J, VA6G, VA6H, VA6I and VA6J were tested in breast adenocarcinoma (MCF-7) and non-malignant mammary-gland-derived (184B5) cell lines to be able to establish their potency and selectivity. The reference drug used was methylseleninic acid (MSA) as a Se-containing structure with promising in vitro and in vivo results against different tumour types. Results are expressed as the concentration that inhibits 50% cell growth (GI50), the concentration that inhibits completely cell growth (TGI) and the concentration that kills 50% of cells (LD50). The selectivity index (SI) is calculated as GI50(184B5)/GI50(MCF-7).
(§2) Cell lines were purchased from the American Type Culture Collection (ATCC, Barcelona, Spain). MCF7 cell lines were grown in Roswell Park Memorial Institute (RPMI) medium (Gibco, Madrid, Spain) supplemented with 10% fetal bovine serum (FBS; Gibco), 100 units/mL penicillin and […] (Gibco, Madrid, Spain). 184B5 cells were grown in DMEM/F12 medium supplemented with 5% FBS, 1x ITS (Lonza, Barcelona, Spain), 100 nM hydrocortisone (Sigma Aldrich, Madrid, Spain), 2 mM sodium pyruvate (Lonza), 20 ng/mL EGF (Sigma Aldrich, Madrid, Spain), 0.3 nM trans-retinoic acid (Sigma-Aldrich) 100 units/mL penicillin and […]. Cells were maintained at 37 °C and 5% CO2.
(§3) Compounds were dissolved in DMSO at a concentration of 0.01 M. Serial dilutions were prepared with non-supplemented medium. The cytotoxic effect of each compound was tested at eight different concentrations ranging between 0.01 and 100 µM.
(§4) A total of 10^4 cells/well in 96 well-plates were treated with either DMSO or increasing concentrations of the corresponding compound for 72 h and cell viability was determined using the MTT (3-(4,5-dimethylthiazol-2-yl)-2,5-diphenyltetrazolium bromide) (Sigma Aldrich, Madrid, Spain) assay. Briefly, cells were incubated with 50 µL of MTT (2 mg/mL stock) for 4 h. The medium was then removed by aspiration and the formazan crystals were dissolved in 150 µL of DMSO. The absorbance was measured at 550 nm in a microplate reader (Sunrise, Tecan, Männedorf, Switzerland). […] Data were obtained from at least three independent experiments performed in quadruplicate.
(Tetrazolium assays rely on reduction of a dye to a coloured formazan, in cell work by metabolically active cells.)

Data set [2] has as its system breast adenocarcinoma (MCF-7) cell line. The data set is described as follows: MTT cell viability assay, 72 h, MCF-7. The class given is cell-based, human. Here is the method:
as §1, §2, §3, §4

The nature of data set [3]: DSC successive melting-recrystallization cycles, polymorphic behaviour. It is filed as physicochemical. Also on record: key: I: Compounds that show a polymorphic phase transition into an amorphous or mainly amorphous solid form after a first melting–cooling scan; II: Compounds that change into a new polymorphic form with a different Tonset of fusion than the one observed at the first melting–recrystallization scan after cooling; III: These compounds show a fusion process without modifications in the thermal behaviour after an initial fusion–recrystallization cycle; IV: Compounds that show recrystallization or other types of phase transition of the original form into another crystalline one in the first heat scan; V: Compounds without fusion processes at the range of temperatures studied; *: fusion with decomposition. The following applies: 10 °C/min. Here is the method:
To establish general polymorphic behaviours, samples of all the compounds synthetized (Figure 1) were exposed to successive cycles of melting–recrystallization using DSC. Calorimetric analyses were performed before the beginning of the degradation process (Table 6). […] This behaviour was shown by several compounds: VA1C, VA2E, VA8E, series H, VA6I, VA8J, VA6M and VA8M. DSC and PXRD results of compound VA7H are shown as supplementary material (Figures S1 and S2 and Table S1). • Behaviour II—Compounds that change into a new polymorphic form with a different Tonset of fusion than the one observed at the first melting–recrystallization scan after cooling. These compounds are VA7E and VA8O. DSC and PXRD results of compound VA7E are shown as supplementary material (Figures S3 and S4, Table S2). • Behaviour III—These compounds show a fusion process without modifications in the thermal behaviour after an initial fusion–recrystallization cycle. Consequently, there is no evidence of polymorphic behaviour. The compounds VA2C, VA2M, VA4J and VA5O belong to this group. DSC and PXRD results of compound VA2M are shown as supplementary material (Figures S5 and S6, Table S3). • Behaviour IV—Compounds that show recrystallization or other types of phase transition of the original form into another crystalline one in the first heat scan. In the successive cycles of melting–recrystallization, the new form may not alter its crystalline form or transit to another polymorphic form. Compounds VA6E, VA7J and VA7M show this behaviour. • Behaviour V—Compounds without fusion processes at the range of temperatures studied.
For calorimetric studies a Perkin–Elmer DSC diamond calibrated with indium and zinc (provided by Perkin–Elmer (Perkin Elmer, Inc. Watham, MA, USA) and fabricated according to guideline ISO35) at 10 °C·min^−1 and nitrogen flow of 20 mL·min^−1 was employed. The gas connected to the equipment was nitrogen with a purity of 99.999%. Calorimetric analyses were carried out in aluminium capsules for volatilities of 10 μL, at a heating rate of 10 °C·min^−1, using a sample of approximately 3 mg, in order to establish the Tonset, Tmax and the enthalpy of fusion ∆Hf.
The calorimetric analyses started with the study of the thermal behaviour of the compounds before the process of degradation in order to evidence the possible existence of polymorphism. For this preliminary study, samples of all the compounds were exposed to successive cycles of heating–cooling. All samples were heated from 50 °C to temperatures 15–20 °C below Tonset of the degradation process, in order to ensure that compounds were not degraded (Table 6). After melting the samples, they were left at room temperature for enough time to allow the compounds to recrystallize before the successive thermal process. Additional cycles of heating–cooling were performed if polymorphism was detected.

Data set [4] is described as follows: Thermogravimetric (TG) analysis of thermal stability. It is filed as physicochemical. The settings on record: nitrogen, 50 to 350 °C, 10 °C/min. How it is done: The thermogravimetric (TG) studies were carried out with a Perkin–Elmer TGA-7 (Perkin Elmer, Inc. Watham, MA, USA) which was calibrated with alumel and nickel at 10 °C·min^−1. The calibration of the oven temperatures was carried out automatically and mass calibrated with a certified sample of 10 mg (ASTM E617, provided by Perkin Elmer, Inc. Watham, MA, USA). TG analyses were performed under a nitrogen atmosphere with a gas flow of 40 mL·min^−1, from 50 to 350 °C, at a heating rate of 10 °C·min^−1, using a sample of approximately 3 mg, in order to obtain the values of the Tonset and Tmax of the degradation process as well as any associated mass loss.

For orientation: GI50 means the concentration at which growth is held to half of that of the control. One may read the TGI as the concentration at which net growth stops. `C[Se](=O)O` [MSA, methylseleninic acid, reference compound]: the GI50 in data set [1] was 1790 nM; in data set [2] (MCF-7, 72 h, MTT, concentration that inhibits 50% cell growth), 1280 nM. Moreover, the LD50 is over 100 µM in data set [1] and over 100 µM in data set [2] (MCF-7, 72 h, MTT, concentration that kills 50% of cells). For the same compound, the TGI in data set [1] is 3840 nM; in data set [2] (MCF-7, 72 h, MTT, concentration that completely inhibits cell growth), 3430 nM. For the same compound, the “SI (selectivity index)” value in data set [2] (GI50(184B5)/GI50(MCF-7)) stood at 1.40.
On to `[SeH]c1nc2ccccc2s1` [VA1C], for which, in data set [3], the “DSC Behaviour (polymorphic/calorimetric behaviour)” value is on record as “I”. In addition, in data set [4], the “TG To (Tonset of thermal degradation)” value was found to be 218.4 °C.
For `[SeH]Cc1c2ccccc2nc2ccccc12` [VA1D], the “DSC Behaviour (polymorphic/calorimetric behaviour)” value in data set [3] was “V”. The “TG To (Tonset of thermal degradation)” value in data set [4] turned out to be 244.7 °C.
Regarding `Sc1ccnc(S)n1` [VA2B], the “DSC Behaviour (polymorphic/calorimetric behaviour)” value in data set [3] is given as “V”. The “TG To (Tonset of thermal degradation)” value in data set [4] was 263.3 °C.
The like results for `Sc1nc2ccccc2s1` [VA2C] were, in that order, “III” and 224.7 °C.
The like results for `SCc1cc2c(cc1Br)OCO2` [VA2E] were, in that order, “I” and 266.2 °C.
The like results for `O=C1c2ccccc2C(=O)N1CS` [VA2M] were, in that order, “III” and 166.0 °C.
For the compound `CSc1ccnc(SC)n1` [VA4B], the “DSC Behaviour (polymorphic/calorimetric behaviour)” value in data set [3] was “V”. Also, the “TG To (Tonset of thermal degradation)” value in data set [4] turned out to be 103.5 °C.
The like results for `CSc1nc2ccccc2s1` [VA4C] were, in that order, “V” and 131.8 °C.
The like results for `CSc1ccc2ccccc2n1` [VA4H] were, in that order, “I” and 105.6 °C.
Turning to `Cc1noc(C)c1C[Se]C#N` [VA5O], the “DSC Behaviour (polymorphic/calorimetric behaviour)” value in data set [3] is listed as “III”. Further, the “TG To (Tonset of thermal degradation)” value in data set [4] came to 141.7 °C.
Turning to `N#C[Se]Cc1ccc(-n2cccc2)cc1` [VA5P], the “DSC Behaviour (polymorphic/calorimetric behaviour)” value in data set [3] is reported as “*”. Moreover, in data set [4], the “TG To (Tonset of thermal degradation)” value was 149.4 °C.
The like results for `N#CSCc1c2ccccc2nc2ccccc12` [VA6D] were, in that order, “V” and 205.0 °C.
The like results for `N#CSCN1C(=O)c2ccccc2C1=O` [VA6M] were, in that order, “I” and 164.8 °C.
The like results for `N=C(N)[Se]Cc1cc2c(cc1Br)OCO2` [VA7E] were, in that order, “II” and 205.2 °C.
`N=C(N)[Se]Cc1ccc([N+](=O)[O-])o1` [VA7F]: the “DSC Behaviour (polymorphic/calorimetric behaviour)” value in data set [3] was “*”. Also, in data set [4], the “TG To (Tonset of thermal degradation)” value stood at 214.7 °C.
The like results for `N=C(N)[Se]Cc1ccc2c(c1)C(=O)c1ccccc1C2=O` [VA7G] were, in that order, “V” and 198.2 °C.
For the compound `N=C(N)[Se]Cc1ccc2ccccc2n1` [VA7H], the “DSC Behaviour (polymorphic/calorimetric behaviour)” value in data set [3] is listed as “I”. Further, the “TG To (Tonset of thermal degradation)” value in data set [4] was 145.8 °C.
The like results for `COc1cc2oc(=O)cc(C[Se]C(=N)N)c2cc1OC` [VA7I] were, in that order, “*” and 226.4 °C.
The like results for `N=C(N)[Se]CN1C(=O)c2ccccc2C1=O` [VA7M] were, in that order, “IV” and 255.8 °C.
The like results for `Cc1noc(C)c1C[Se]C(=N)N` [VA7O] were, in that order, “V” and 185.9 °C.
Turning to `N=C(N)[Se]Cc1ccc(-n2cccc2)cc1` [VA7P], in data set [3], the “DSC Behaviour (polymorphic/calorimetric behaviour)” value is recorded as “*”. Further, in data set [4], the “TG To (Tonset of thermal degradation)” value came to 175.8 °C.
The like results for `N=C(N)SCc1c2ccccc2nc2ccccc12` [VA8D] were, in that order, “*” and 193.1 °C.
Take `N=C(N)SCc1cc2c(cc1Br)OCO2` [VA8E]: in data set [3], the “DSC Behaviour (polymorphic/calorimetric behaviour)” value is “I”. Moreover, the “TG To (Tonset of thermal degradation)” value in data set [4] is 215.1 °C.
The like results for `N=C(N)SCc1ccc([N+](=O)[O-])o1` [VA8F] were, in that order, “*” and 190.8 °C.
Consider `N=C(N)SCc1ccc2c(c1)C(=O)c1ccccc1C2=O` [VA8G], for which the “DSC Behaviour (polymorphic/calorimetric behaviour)” value in data set [3] was “V”. In data set [4], the “TG To (Tonset of thermal degradation)” value amounted to 243.7 °C.
The like results for `N=C(N)SCc1ccc2ccccc2n1` [VA8H] were, in that order, “I” and 190.2 °C.
The like results for `COc1cc2oc(=O)cc(CSC(=N)N)c2cc1OC` [VA8I] were, in that order, “*” and 272.4 °C.
The like results for `N=C(N)SCc1nc2ccccc2nc1CSC(=N)N` [VA8J] were, in that order, “I” and 251.05 °C.
On to `N=C(N)SCN1C(=O)c2ccccc2C1=O` [VA8M], for which the “DSC Behaviour (polymorphic/calorimetric behaviour)” value in data set [3] is on record as “I”. Also, in data set [4], the “TG To (Tonset of thermal degradation)” value stood at 233.1 °C.
The like results for `Cc1noc(C)c1CSC(=N)N` [VA8O] were, in that order, “II” and 201.8 °C.
The like results for `N=C(N)SCc1ccc(-n2cccc2)cc1` [VA8P] were, in that order, “*” and 199.8 °C.
